In BindingDB's records for doi:10.1016/j.bmc.2004.09.036 (University of Alabama At Birmingham, 2005):
pKi: −log10 of the molar value.

Legend:
Experiment in all cases: Protease Inhibition Assay
[1] = target: T1, Genome polyprotein [1066-1250,R1182K]/[1394-1440,K1405R,D1408E] (dengue virus type 2, UniProt P14340+P27914, D1408E/K1405R/R1182K); details: pH 8.5; 23 °C
T1 construct: 1066-1250; 1394-1440
Procedure: (§1) All proteases were assayed by monitoring the cleavage of peptide substrate with fluorescent reporter at room temperature with a microtiter plate spectrofluorometer. Three different concentrations of inhibitors were used for calculating Ki values. Kinetic data were measured with an excitation wavelength of 390nm and emission wavelength of 460nm. From the initial velocities of the reactions Ki values were calculated by nonlinear regression method using the program EZ-fit (Perella Scientific).

[2] = target: T2, Serine protease 1 (Bos taurus, UniProt P00760); details: pH 7.6; 23 °C
T2 sequence (P00760 whole entry): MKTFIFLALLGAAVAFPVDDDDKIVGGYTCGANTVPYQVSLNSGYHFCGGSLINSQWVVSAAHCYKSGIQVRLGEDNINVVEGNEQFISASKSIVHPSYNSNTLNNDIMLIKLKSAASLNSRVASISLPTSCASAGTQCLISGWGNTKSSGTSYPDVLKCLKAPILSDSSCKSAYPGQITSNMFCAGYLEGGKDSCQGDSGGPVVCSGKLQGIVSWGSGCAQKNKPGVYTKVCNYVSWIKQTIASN
Procedure: as §1

[3] = target: T3, Genome polyprotein [1424-1463]/[1502-1685] (West Nile virus, UniProt P06935); details: pH 8.5; 23 °C
T3 construct: 1424-1463; 1502-1685
T3 sequence (P06935 whole entry) 1: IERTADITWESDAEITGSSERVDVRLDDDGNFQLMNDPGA
T3 sequence (P06935 whole entry) 2: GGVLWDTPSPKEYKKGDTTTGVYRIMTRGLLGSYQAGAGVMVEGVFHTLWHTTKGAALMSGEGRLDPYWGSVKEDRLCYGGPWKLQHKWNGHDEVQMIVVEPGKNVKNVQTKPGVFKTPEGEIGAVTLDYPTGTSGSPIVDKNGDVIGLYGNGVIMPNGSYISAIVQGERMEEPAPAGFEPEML
Procedure: as §1

T1 sequence (P14340 1394-1440, looked up, stated change not applied): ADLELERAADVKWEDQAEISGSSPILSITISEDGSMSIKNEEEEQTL
T1 sequence (P27914 1066-1250, looked up, stated change not applied): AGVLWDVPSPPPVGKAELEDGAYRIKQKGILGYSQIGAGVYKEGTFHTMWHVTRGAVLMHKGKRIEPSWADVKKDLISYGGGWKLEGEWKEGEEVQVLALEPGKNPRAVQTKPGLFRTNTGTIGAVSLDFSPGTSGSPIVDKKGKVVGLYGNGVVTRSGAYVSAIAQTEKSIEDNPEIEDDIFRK

Compound: NC(N)=NN=C1C(=O)Nc2ccccc21 [guanidine, 4]
- pKi [1]: 4.64
- pKi [2]: 5.40
- pKi [3]: 4.80

Compound: NC(N)=NN=Cc1ccc(C=NN=C(N)N)cc1 [biguanidine, 1]
- pKi [1]: 4.36
- pKi [2]: 4.06
- pKi [3]: 4.46

Compound: NC(N)=NNc1ccc(NNC(N)N)cc1 [biguanidine, 3]
- pKi [1]: 2.75
- pKi [2]: 4.29
- pKi [3]: 2.96

Compound: Cc1ccc(C(=NN=C(N)N)P(O)O)cc1 [guanidine, 5]
- pKi [1]: 4.85
- pKi [2]: 5.49
- pKi [3]: 4.89

Compound: N=C(N)NN=CC=NN=C(N)N [biguanidine, 2]
- pKi [1]: 3.37
- pKi [2]: 3.81
- pKi [3]: 3.47
